How the values were obtained:
fungal cells = details: Ma et al., 2006 and Alvarez et al.; cited from earlier work
Cn Δgcs1 mutant [1] = test: Tissue fungal burden (CFU) in Tgε26 mice infected with Cn Δgcs1; assay type: in vivo, Cryptococcus neoformans
Procedure: (§1) Alveolar macrophage depletion was evaluated by intranasally introducing 60 μl of PBS, empty liposome or liposomes containing clodronate into the mouse and performing bronchoalveolar lavage at 48 hours or 6 days. Bronchoalveolar lavage was done by inserting a stub adapter in the trachea of the mouse and rinsing the alveolar spaces 10 times using 0.5 ml PBS (pH=7.4) for each wash. The collected fluid was spun down and alveolar macrophages were counted. Lavage samples were taken from two mice per time point per group. Experimental groups were divided into five mice each receiving PBS (control group), empty liposome (control group) or liposome encapsulated clodronate administered mice. Two days before infection with yeast, the mice were anesthesized and given 60 μl of PBS, empty liposomes or clodronate-encapsulated liposomes. After 48 hrs, mice were infected with the yeast cells as described above. Mice continued to receive PBS, liposome or clodronate treatment weekly.
(§2) Tissue fungal burden. […] Organs were homogenized in sterile PBS, using the Stomacher 80 (Lab system, Fisher Scientific, Pittsburgh, Pa., USA) for 2 minutes. Serial dilutions were then plated onto YPD plates and colony-forming units were counted and recorded. Statistical analysis was performed using Student's t test, and a p value of less than 0.05 was considered to be significant.
Tissue burden studies. To address the effect of macrophage depletion on the dissemination of Δgcs1 cells, we performed tissue burden studies of lung, brain, spleen, and kidney upon infection of Cn WT or Δgcs1 strain.

alveolar macrophages = test: Alveolar macrophage depletion, count in bronchoalveolar lavage after intranasal liposomes; assay type: in vivo, mouse; details: P<0.05
Procedure: Alveolar macrophage depletion. Liposomes containing clodronate (dichloromethylenediphosphonic acid disodium salt) and empty liposomes used as control, were prepared as described previously (Van Rooijen, 1994). Briefly, 8 mg cholesterol (Avanti Polar Lipids) and 86 mg L-alpha phosphatidylcholine (Avanti Polar Lipids) were dissolved in chloroform, which was then slowly evaporated. The thin, filmy layer was resuspended in 10 ml of PBS or 0.6M clodronate. The mixture was exposed to N2 gas and incubated 2 hours at room temperature with gentle shaking. The mixture was then sonicated and incubated another 2 hours to allow liposome swelling. The solution was centrifuged at 10,000 g for 15 minutes and the liposomes containing clodronate were collected and washed twice with sterile PBS. The liposomes were kept at 4° C. under N2 until use for a maximum of 2 weeks.
(§3) Alveolar macrophage depletion was evaluated by intranasally introducing 60 μl of PBS, empty liposome or liposomes containing clodronate into the mouse and performing bronchoalveolar lavage at 48 hours or 6 days. […] The collected fluid was spun down and alveolar macrophages were counted. […]
Pharmacological depletion of alveolar macrophage. […] After 48 hours or 7 days from the injection, mice were sacrificed, the bronco alveolar lavage (BAL) fluid was collected and viability of alveolar macrophages assessed microscopically.

[2] = test system: Cn WT (C. neoformans var. grubii serotype A H99); test: Survival of Tgε26 mice infected intranasally with Cn wild-type; assay type: in vivo, Cryptococcus neoformans; details: Cn WT intranasal, weekly intranasal liposome treatment, no significant change vs controls
Procedure: (§4) Animal studies. Four to six-week-old Tgε26 mice (Wang et al., 1994; Wang et al., 1997), available in our Animal Core Facility, Medical University of South Carolina, Charleston, S.C., were used for this study. Mice were anesthetized with an intraperitoneal injection of 60 μl xylaxine/ketamine mixture containing 5 mg xylazine and 95 mg ketamine per kilogram of body weight. Wild-type and mutant strains of Cn were grown in YPD media for 24 hrs at 30° C. The yeast cells were harvested and washed three times by centrifugation at 3000 rpm for 10 minutes and resuspended in sterile PBS (pH=7.4) at a concentration of 2.5×10^7 cells/ml. Mice were infected intranasally with 20 μl containing 5×10^5 wild-type, Δgcs1 or Δgcs1+GCS1 cells. Mice were fed ad libitum and monitored by twice-daily inspections. Mice that appeared moribund, in pain or with clinical signs of meningoencephalitis were sacrificed using CO2 inhalation followed by cervical dislocation. […] Survival data from the mice experiment were analyzed by Kluskal-Wallis test. […]
as §3

Cn Δgcs1 mutant [3] = test: Survival of Tgε26 mice infected intranasally with Cn Δgcs1; assay type: in vivo, Cryptococcus neoformans
Procedure: as §4, §3

Cn Δgcs1 mutant [4] = test: Lung histopathology of Tgε26 mice infected with Cn Δgcs1; assay type: in vivo, Cryptococcus neoformans; details: day 16 and day 36 of infection; vs empty liposome
Procedure: Histological analyses. Organs were harvested and fixed for 48 hours in 37% formaldehyde, paraffin-embedded, sectioned and stained with movat, mucicarmine, or hematoxylin and eosin.
Histopathology. To gain further insights in the host inflammatory response against Cn Δgcs1 cells in mice in which macrophages have been deleted, we performed a histology analysis on lungs of Tgε26 mice infected with Δgcs1 strain and receiving empty liposome or liposome containing clodronate.

[5] = test system: Cn WT (C. neoformans var. grubii serotype A H99); test: Tissue fungal burden (CFU) in Tgε26 mice infected with Cn wild-type; assay type: in vivo, Cryptococcus neoformans
Procedure: as §1, §2
Tissue burden studies. […]

CCN(CC)CCCC(C)Nc1ccnc2cc(Cl)ccc12 (stereo not drawn) [chloroquine]
extrusion of fungal cells from the intracellular to the extracellular compartment (fungal cells): promote extrusion of fungal cells

O=P([O-])([O-])C(Cl)(Cl)P(=O)(O)O.[Na+].[Na+] [clodronate, dichloromethylenediphosphonic acid disodium salt]
number of fungal cells in all organs analyzed, Δgcs1 (Cn Δgcs1 mutant [1]; lung, brain, kidney, spleen, vs control treated groups, P<0.05): significantly lower number of fungal cells
reduction of lung Δgcs1 fungal load (Cn Δgcs1 mutant [1]; macrophage-depleted Tgε26 lungs, P<0.001): > 3000 fold
delay in fungal growth in all other organs (Cn Δgcs1 mutant [1]; {}): 14 days
decrease in number of alveolar macrophages (AMs) (alveolar macrophages; 48 hours after single intranasal 60 μl dose of liposome suspension, vs PBS- or empty liposome-treated mice): 58%
reduction of AMs (alveolar macrophages; 7 days after single intranasal 60 μl dose of liposome suspension, vs control-treated mice): 52%
average survival of Cn-infected mice [2]: 12.8 ± 5.2 days
additional days of survival of infection by the Δgcs1 strain (Cn Δgcs1 mutant [3]; Tgε26 mice depleted of AMs): 18 to 20 days
average survival of Δgcs1-infected mice (Cn Δgcs1 mutant [3]; {}): 76.6 ± 5.3 days
lung histopathology, Δgcs1 cells (Cn Δgcs1 mutant [4]): few Δgcs1 cells in the lung parenchyma
tissue burden culture in the brain, Cn WT ([5]; Tgε26 mice, FIG. 15B): reduction of tissue burden culture in the brain (FIG. 15B) but this difference was not statistically significant
tissue colonization of Cn WT cells in all organs analyzed ([5]; lung, brain, spleen, kidney, vs PBS or empty liposome groups): No statistically significant differences
